# Test results taken from patent publication US6914045B2, “Glycopeptide antibiotics” (Wyeth Holdings Corporation, priority 2001, dated 2005).
# Assays:
# Assay in all cases: in vitro antibacterial evaluation, MIC by broth dilution
# Format in all cases: cell-based
# Enterococcus sp. = details: broth dilution, 18 hours at 35° C.
# Summary of the method: (§1)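 MIC, the lowest antibiotic concentration preventing growth, was read across 64-0.06 μg/mL with 5×10^5 CFU/mL inoculum. Method followed NCCLS M7-A2 broth dilution using Mueller-Hinton II; Gram-positive strains covered recent methicillin-, penicillin- and/or vancomycin-resistant clinical isolates.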
# Staphylococcus sp. = details: broth dilution, 18 hours at 35° C.; for MIC Staphylococcus aureus (ATCC 29213): strain ATCC 29213; for MIC Staphylococcus aureus (GC 1131): strain GC 1131; for MIC Staphylococcus aureus (GC 3051): strain GC 3051; for MIC Staphylococcus aureus (GC 3053): strain GC 3053; for MIC Staphylococcus aureus (GC 4541): strain GC 4541; for MIC Staphylococcus aureus (GC 4542): strain GC 4542; for MIC Staphylococcus aureus-SMITH (GC 4543): strain GC 4543; for MIC Staphylococcus aureus (GC 4544): strain GC 4544; for MIC Staphylococcus aureus (GC 4545): strain GC 4545; for MIC Staphylococcus haemolyticus (GC 4546): strain GC 4546; for MIC Coagulase Negative Staphylococcus (GC 4547): strain GC 4547; for MIC Coagulase Negative Staphylococcus (GC 4548): strain GC 4548; for MIC Coagulase Negative Staphylococcus (GC 4549): strain GC 4549; for MIC Coagulase Negative Staphylococcus (GC 4551): strain GC 4551
# Summary of the method: as §1
# Streptococcus sp. = details: broth dilution, 18 hours at 35° C.
# Summary of the method: as §1
# Escherichia coli = details: 18 hours at 35° C.
# Summary of the method: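 MIC is the lowest antibiotic concentration (tested 64-0.06 μg/mL) preventing growth of a 5×10^5 CFU/mL inoculum. Determined by broth dilution in Mueller-Hinton II medium following NCCLS standard M7-A2.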
smiles,measurement,setting,value
"CC(c1ccccc1)C1NC(=O)CNC(=O)C(CO)NC(=O)C(C(O)C2CNC(=N)N2C2OC(CO)C(O)C(O)C2O)NC(=O)C(C(O)C2CNC(=N)N2)NC(=O)C(Cc2ccc(O)c(N(C)C)c2)NC1=O (stereo not drawn) [Example 12, Cyclo[glycyl-β-methylphenylalanyl-3-(dimethylamino)tyrosyl-3-(2-iminoimidazolidin-4-yl)-seryl-3-(3-hexopyranosyl-2-iminoimidazolidin-4-yl)serylseryl]]",MIC Enterococcus faecalis (ATCC 29212),Enterococcus sp.; strain ATCC 29212,>128 µg/mL
same,MIC Enterococcus faecalis (GC 2242),Enterococcus sp.; strain GC 2242,>128 µg/mL
same,MIC Enterococcus faecium (GC 2243),Enterococcus sp.; strain GC 2243,>128 µg/mL
same,MIC Enterococcus faecalis (GC 2691),Enterococcus sp.; strain GC 2691,>128 µg/mL
same,MIC Enterococcus faecalis (GC 3059),Enterococcus sp.; strain GC 3059,>128 µg/mL
same,MIC Enterococcus faecalis (GC 4552),Enterococcus sp.; strain GC 4552,>128 µg/mL
same,MIC Enterococcus faecalis (GC 4553),Enterococcus sp.; strain GC 4553,>128 µg/mL
same,MIC Enterococcus faecalis (GC 4554),Enterococcus sp.; strain GC 4554,>128 µg/mL
same,MIC Enterococcus faecium (GC 4556),Enterococcus sp.; strain GC 4556,>128 µg/mL
same,MIC Enterococcus faecium (GC 4557),Enterococcus sp.; strain GC 4557,>128 µg/mL
same,MIC Enterococcus avium (GC 4558),Enterococcus sp.; strain GC 4558,128 µg/mL
same,MIC Enterococcus faecalis (GC 6189),Enterococcus sp.; strain GC 6189,>128 µg/mL
same,MIC Staphylococcus aureus (ATCC 29213),Staphylococcus sp.,>128 µg/mL
same,MIC Staphylococcus aureus (GC 1131),Staphylococcus sp.,>128 µg/mL
same,MIC Staphylococcus aureus (GC 3051),Staphylococcus sp.,>128 µg/mL
same,MIC Staphylococcus aureus (GC 3053),Staphylococcus sp.,>128 µg/mL
same,MIC Staphylococcus aureus (GC 4541),Staphylococcus sp.,>128 µg/mL
same,MIC Staphylococcus aureus (GC 4542),Staphylococcus sp.,>128 µg/mL
same,MIC Staphylococcus aureus-SMITH (GC 4543),Staphylococcus sp.,>128 µg/mL
same,MIC Staphylococcus aureus (GC 4544),Staphylococcus sp.,>128 µg/mL
same,MIC Staphylococcus aureus (GC 4545),Staphylococcus sp.,>128 µg/mL
same,MIC Staphylococcus haemolyticus (GC 4546),Staphylococcus sp.,>128 µg/mL
same,MIC Coagulase Negative Staphylococcus (GC 4547),Staphylococcus sp.,>128 µg/mL
same,MIC Coagulase Negative Staphylococcus (GC 4548),Staphylococcus sp.,>128 µg/mL
same,MIC Coagulase Negative Staphylococcus (GC 4549),Staphylococcus sp.,>128 µg/mL
same,MIC Coagulase Negative Staphylococcus (GC 4551),Staphylococcus sp.,>128 µg/mL
same,MIC Coagulase Negative Staphylococcus (GC 6257),Staphylococcus sp.; strain GC 6257,>128 µg/mL
same,MIC Streptococcus pneumoniae (ATCC 6301),Streptococcus sp.; strain ATCC 6301,>128 µg/mL
same,MIC Streptococcus pneumoniae (GC 1894),Streptococcus sp.; strain GC 1894,128 µg/mL
same,MIC Streptococcus pyogenes (GC 4563),Streptococcus sp.; strain GC 4563,>128 µg/mL
same,MIC Streptococcus agalactiae (GC 4564),Streptococcus sp.; strain GC 4564,128 µg/mL
same,MIC Streptococcus pneumoniae (GC 4565),Streptococcus sp.; strain GC 4565,128 µg/mL
same,MIC Escherichia coli (ATCC 25922),"Escherichia coli; strain ATCC 25922, broth dilution",>128 µg/mL
same,MIC Escherichia coli (GC 4559),"Escherichia coli; strain GC 4559, broth dilution",>128 µg/mL
same,MIC Escherichia coli (GC 4560),"Escherichia coli; strain GC 4560, broth dilution",128 µg/mL
CC(C1CCCCC1)C1NC(=O)CNC(=O)C(CO)NC(=O)C(C(O)C2CNC(=N)N2C2OC(CO)C(O)C(O)C2O)NC(=O)C(C(O)C2CNC(=N)N2)NC(=O)C(Cc2ccc(OC3OC(CO)C(OC4OC5COC(c6ccccc6)OC5C(O)C4O)C(O)C3O)cc2)NC1=O (stereo not drawn) [Example 201],MIC Enterococcus avium (GC 4558),Enterococcus sp.,1 µg/mL
same,MIC Enterococcus faecalis (ATCC 29212),Enterococcus sp.,1 µg/mL
same,MIC Enterococcus faecalis (GC 2242),Enterococcus sp.,1 µg/mL
same,MIC Enterococcus faecalis (GC 2691),Enterococcus sp.,1 µg/mL
same,MIC Enterococcus faecalis (GC 3059),Enterococcus sp.,1 µg/mL
same,MIC Enterococcus faecalis (GC 4552),Enterococcus sp.,1 µg/mL
same,MIC Enterococcus faecalis (GC 4553),Enterococcus sp.,1 µg/mL
same,MIC Enterococcus faecalis (GC 4554),Enterococcus sp.,1 µg/mL
same,MIC Enterococcus faecalis (GC 6189),Enterococcus sp.,1 µg/mL
same,MIC Enterococcus faecium (GC 2243),Enterococcus sp.,1 µg/mL
same,MIC Enterococcus faecium (GC 4556),Enterococcus sp.,1 µg/mL
same,MIC Enterococcus faecium (GC 4557),Enterococcus sp.,0.5 µg/mL
same,MIC Enterococcus faecalis (ATCC 29212),"Enterococcus sp.; inoculum 5×10^5 CFU/mL, strain ATCC 29212",1 µg/mL
same,MIC Enterococcus faecalis (GC 2242),"Enterococcus sp.; inoculum 5×10^5 CFU/mL, strain GC 2242",1 µg/mL
same,MIC Enterococcus faecium (GC 2243),"Enterococcus sp.; inoculum 5×10^5 CFU/mL, strain GC 2243",1 µg/mL
same,MIC Enterococcus faecalis (GC 2691),"Enterococcus sp.; inoculum 5×10^5 CFU/mL, strain GC 2691",1 µg/mL
same,MIC Enterococcus faecalis (GC 3059),"Enterococcus sp.; inoculum 5×10^5 CFU/mL, strain GC 3059",1 µg/mL
same,MIC Enterococcus faecalis (GC 4552),"Enterococcus sp.; inoculum 5×10^5 CFU/mL, strain GC 4552",1 µg/mL
same,MIC Enterococcus faecalis (GC 4553),"Enterococcus sp.; inoculum 5×10^5 CFU/mL, strain GC 4553",1 µg/mL
same,MIC Enterococcus faecalis (GC 4554),"Enterococcus sp.; inoculum 5×10^5 CFU/mL, strain GC 4554",1 µg/mL
same,MIC Enterococcus faecium (GC 4556),"Enterococcus sp.; inoculum 5×10^5 CFU/mL, strain GC 4556",1 µg/mL
same,MIC Enterococcus faecium (GC 4557),"Enterococcus sp.; inoculum 5×10^5 CFU/mL, strain GC 4557",0.5 µg/mL
same,MIC Enterococcus avium (GC 4558),"Enterococcus sp.; inoculum 5×10^5 CFU/mL, strain GC 4558",1 µg/mL
same,MIC Enterococcus faecalis (GC 6189),"Enterococcus sp.; inoculum 5×10^5 CFU/mL, strain GC 6189",1 µg/mL
same,MIC Staphylococcus aureus (GC 1131),Staphylococcus sp.; inoculum 5×10^5 CFU/mL,0.25 µg/mL
same,MIC Staphylococcus aureus (ATCC 29213),Staphylococcus sp.,0.25 µg/mL
same,MIC Staphylococcus aureus (GC 1131),Staphylococcus sp.,0.25 µg/mL
same,MIC Staphylococcus aureus (GC 3051),Staphylococcus sp.,0.5 µg/mL
same,MIC Staphylococcus aureus (GC 3053),Staphylococcus sp.,0.5 µg/mL
same,MIC Staphylococcus aureus (GC 4541),Staphylococcus sp.,0.5 µg/mL
same,MIC Staphylococcus aureus (GC 4542),Staphylococcus sp.,0.25 µg/mL
same,MIC Staphylococcus aureus-SMITH (GC 4543),Staphylococcus sp.,0.5 µg/mL
same,MIC Staphylococcus aureus (GC 4544),Staphylococcus sp.,0.25 µg/mL
same,MIC Staphylococcus aureus (GC 4545),Staphylococcus sp.,0.25 µg/mL
same,MIC Staphylococcus haemolyticus (GC 4546),Staphylococcus sp.,0.25 µg/mL
same,MIC Coagulase Negative Staphylococcus (GC 4547),Staphylococcus sp.,0.25 µg/mL
same,MIC Coagulase Negative Staphylococcus (GC 4548),Staphylococcus sp.,0.25 µg/mL
same,MIC Coagulase Negative Staphylococcus (GC 4549),Staphylococcus sp.,0.25 µg/mL
same,MIC Coagulase Negative Staphylococcus (GC 4551),Staphylococcus sp.,0.25 µg/mL
same,MIC Streptococcus agalactiae (GC 4564),Streptococcus sp.,<0.12 µg/mL
same,MIC Streptococcus pneumoniae (ATCC 6301),Streptococcus sp.,<0.12 µg/mL
same,MIC Streptococcus pneumoniae (GC 1894),Streptococcus sp.,<0.12 µg/mL
same,MIC Streptococcus pneumoniae (GC 4565),Streptococcus sp.,<0.12 µg/mL
same,MIC Streptococcus pyogenes (GC 4563),Streptococcus sp.,<0.12 µg/mL
same,MIC Streptococcus pneumoniae (ATCC 6301),"Streptococcus sp.; inoculum 5×10^5 CFU/mL, strain ATCC 6301",<0.12 µg/mL
same,MIC Streptococcus pneumoniae (GC 1894),"Streptococcus sp.; inoculum 5×10^5 CFU/mL, strain GC 1894",<0.12 µg/mL
same,MIC Streptococcus pyogenes (GC 4563),"Streptococcus sp.; inoculum 5×10^5 CFU/mL, strain GC 4563",<0.12 µg/mL
same,MIC Streptococcus agalactiae (GC 4564),"Streptococcus sp.; inoculum 5×10^5 CFU/mL, strain GC 4564",<0.12 µg/mL
same,MIC Streptococcus pneumoniae (GC 4565),"Streptococcus sp.; inoculum 5×10^5 CFU/mL, strain GC 4565",<0.12 µg/mL
same,MIC Escherichia coli (ATCC 25922),Escherichia coli,16 µg/mL
same,MIC Escherichia coli (GC 4559),Escherichia coli,16 µg/mL
same,MIC Escherichia coli (GC 4560),Escherichia coli,0.25 µg/mL
